In one test the target is T1, Full length Human HDAC10 (Homo sapiens, UniProt Q969S8).
T1 sequence (Q969S8 1-669): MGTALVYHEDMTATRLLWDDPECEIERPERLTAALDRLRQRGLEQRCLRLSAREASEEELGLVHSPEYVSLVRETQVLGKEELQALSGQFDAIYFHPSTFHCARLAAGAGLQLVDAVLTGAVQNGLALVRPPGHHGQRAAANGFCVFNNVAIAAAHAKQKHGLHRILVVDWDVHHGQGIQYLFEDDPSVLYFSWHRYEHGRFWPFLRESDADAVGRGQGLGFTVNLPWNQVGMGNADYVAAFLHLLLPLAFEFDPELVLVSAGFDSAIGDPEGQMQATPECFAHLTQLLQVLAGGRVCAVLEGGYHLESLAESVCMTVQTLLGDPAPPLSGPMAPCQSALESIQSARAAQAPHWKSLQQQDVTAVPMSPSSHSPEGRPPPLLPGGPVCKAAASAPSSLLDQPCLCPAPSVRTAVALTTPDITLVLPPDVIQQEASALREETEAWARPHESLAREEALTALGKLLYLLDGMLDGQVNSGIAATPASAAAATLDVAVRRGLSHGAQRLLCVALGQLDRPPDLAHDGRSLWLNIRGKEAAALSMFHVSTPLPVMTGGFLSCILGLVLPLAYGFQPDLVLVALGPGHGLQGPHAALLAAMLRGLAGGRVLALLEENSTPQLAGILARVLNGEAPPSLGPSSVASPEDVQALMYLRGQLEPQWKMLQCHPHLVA

The next test concerns the target T2, Human HDAC7 aa 518-end (Homo sapiens, UniProt Q8WUI4).
T2 sequence (Q8WUI4 518-952 limits assumed): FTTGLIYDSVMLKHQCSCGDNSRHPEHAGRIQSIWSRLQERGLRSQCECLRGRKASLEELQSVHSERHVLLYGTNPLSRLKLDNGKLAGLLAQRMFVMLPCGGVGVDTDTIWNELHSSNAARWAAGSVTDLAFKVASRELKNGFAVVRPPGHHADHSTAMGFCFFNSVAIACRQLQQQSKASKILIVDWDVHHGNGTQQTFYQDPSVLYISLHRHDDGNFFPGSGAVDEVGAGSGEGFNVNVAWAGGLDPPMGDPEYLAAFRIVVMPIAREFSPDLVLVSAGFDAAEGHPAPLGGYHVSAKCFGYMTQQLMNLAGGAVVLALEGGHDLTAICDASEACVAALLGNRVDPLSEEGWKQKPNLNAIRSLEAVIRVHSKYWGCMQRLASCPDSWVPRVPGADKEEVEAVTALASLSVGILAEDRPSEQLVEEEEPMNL

The next test addresses T3, Full length Human HDAC6 (Homo sapiens, UniProt Q9UBN7).
T3 sequence (Q9UBN7 1-1215): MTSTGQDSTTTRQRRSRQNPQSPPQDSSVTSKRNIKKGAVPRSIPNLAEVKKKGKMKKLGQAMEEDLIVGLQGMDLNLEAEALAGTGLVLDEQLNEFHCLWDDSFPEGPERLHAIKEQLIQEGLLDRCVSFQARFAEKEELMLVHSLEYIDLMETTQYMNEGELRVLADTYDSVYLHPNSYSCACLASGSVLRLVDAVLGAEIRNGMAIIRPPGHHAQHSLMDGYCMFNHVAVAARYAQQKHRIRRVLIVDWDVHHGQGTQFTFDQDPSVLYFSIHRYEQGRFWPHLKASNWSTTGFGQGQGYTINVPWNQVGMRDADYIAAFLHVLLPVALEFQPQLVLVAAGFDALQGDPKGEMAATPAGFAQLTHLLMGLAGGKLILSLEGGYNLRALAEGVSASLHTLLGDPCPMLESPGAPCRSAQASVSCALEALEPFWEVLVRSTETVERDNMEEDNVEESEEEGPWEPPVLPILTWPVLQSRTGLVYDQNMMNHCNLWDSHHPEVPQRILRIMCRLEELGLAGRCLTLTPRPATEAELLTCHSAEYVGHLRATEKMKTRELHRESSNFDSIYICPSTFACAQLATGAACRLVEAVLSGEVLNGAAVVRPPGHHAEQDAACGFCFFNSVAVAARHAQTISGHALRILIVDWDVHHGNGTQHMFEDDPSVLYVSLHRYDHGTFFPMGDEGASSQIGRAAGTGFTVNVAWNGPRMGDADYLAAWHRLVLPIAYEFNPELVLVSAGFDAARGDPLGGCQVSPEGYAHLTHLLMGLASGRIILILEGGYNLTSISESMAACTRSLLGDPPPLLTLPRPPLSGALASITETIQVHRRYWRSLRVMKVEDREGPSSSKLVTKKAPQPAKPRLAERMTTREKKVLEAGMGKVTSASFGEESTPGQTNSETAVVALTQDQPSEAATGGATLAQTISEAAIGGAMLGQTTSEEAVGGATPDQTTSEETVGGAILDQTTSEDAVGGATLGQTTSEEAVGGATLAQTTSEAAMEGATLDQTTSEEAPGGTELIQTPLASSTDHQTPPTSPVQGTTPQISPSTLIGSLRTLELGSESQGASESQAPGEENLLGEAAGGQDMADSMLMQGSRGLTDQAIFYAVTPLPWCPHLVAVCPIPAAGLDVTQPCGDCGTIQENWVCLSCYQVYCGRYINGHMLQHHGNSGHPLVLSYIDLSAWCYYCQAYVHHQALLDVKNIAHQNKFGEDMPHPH
The conditions noted are these: for Selectivity (6 v 8) (fold): ratio of HDAC8 IC50/HDAC6 IC50.

A further test deals with T4, Full length Human HDAC8 (Homo sapiens, UniProt Q9BY41).
T4 sequence (Q9BY41 1-377): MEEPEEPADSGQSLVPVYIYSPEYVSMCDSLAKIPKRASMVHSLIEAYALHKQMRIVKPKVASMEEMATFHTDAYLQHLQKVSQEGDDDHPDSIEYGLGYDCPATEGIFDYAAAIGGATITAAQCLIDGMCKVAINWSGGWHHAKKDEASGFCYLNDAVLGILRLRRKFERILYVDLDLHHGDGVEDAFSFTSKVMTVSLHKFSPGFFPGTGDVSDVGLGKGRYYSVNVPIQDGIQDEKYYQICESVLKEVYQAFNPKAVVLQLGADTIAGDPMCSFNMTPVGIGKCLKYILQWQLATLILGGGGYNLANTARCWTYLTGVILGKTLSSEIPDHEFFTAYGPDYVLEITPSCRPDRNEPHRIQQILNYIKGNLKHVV

[1] abbreviates: read-out: In vitro enzymatic IC50, HDAC Paralog 6, Table 2.
Setting [2] is: read-out: In vitro enzymatic IC50, HDAC Paralog 8, Table 2.

Like-named read-outs stand apart in the source and are kept apart here.

`CC(C)(C)CN1CCc2cc(C(=O)NO)cc(F)c2C1` [compound 20]: the IC50 against Full length Human HDAC10 is 10 to 100 µM; on Human HDAC7 aa 518-end, > 100 µM; on Full length Human HDAC6, 0.001 to 0.1 µM; at Full length Human HDAC6 (setting [1]), 0.001 to 0.1 µM; against Full length Human HDAC8 it was 10 to 100 µM; on Full length Human HDAC8 (setting [2]) it was 10 to 100 µM.
In the case of `O=C(NO)c1cc(F)c2c(c1)CCN(C1COC1)C2` [compound 24], the concentration for half-maximal inhibition (IC50) was > 100 µM against Full length Human HDAC10; 1 to 10 µM at Human HDAC7 aa 518-end; 0.001 to 0.1 µM on Full length Human HDAC6; 0.001 to 0.1 µM on Full length Human HDAC6 (setting [1]); 1 to 10 µM on Full length Human HDAC8; 1 to 10 µM on Full length Human HDAC8 (setting [2]).
As for `O=C(NO)c1ccc(CN2C3CCC2CC(=NO)C3)c(F)c1` [compound 54], the IC50 against Full length Human HDAC10 was > 100 µM; against Human HDAC7 aa 518-end it was 1 to 10 µM; on Full length Human HDAC6, 0.001 to 0.1 µM; at Full length Human HDAC6 (setting [1]) it was 0.001 to 0.1 µM; at Full length Human HDAC8, 0.1 to 1 µM; at Full length Human HDAC8 (setting [2]) it was 0.1 to 1 µM. The “Selectivity (6 v 8) (fold)” value at Full length Human HDAC6 (Table 1, number) is on record as 38.9 fold; at Full length Human HDAC6 (Table 1, range class) it was “III (III: >10-100)”.
On to `O=C(NO)c1ccc(CN2CCC3(CCCCC3)CC2)c(F)c1` [compound 74], for which the IC50 on Full length Human HDAC10 was 10 to 100 µM; at Human HDAC7 aa 518-end it was 1 to 10 µM; at Full length Human HDAC6 it was 0.1 to 1 µM; on Full length Human HDAC6 (setting [1]), 0.1 to 1 µM; against Full length Human HDAC8 it was 1 to 10 µM; on Full length Human HDAC8 (setting [2]) it was 1 to 10 µM. Besides, the “Selectivity (6 v 8) (fold)” value on Full length Human HDAC6 (Table 1, number) was 24.9 fold; on Full length Human HDAC6 (Table 1, range class), “III (III: >10-100)”.
Consider `O=C(NO)c1ccc2c(c1)C[C@H]1COCC(=O)N1C2` (single isomer, unassigned) [compound 134], for which the IC50 on Full length Human HDAC10 lay within 10 to 100 µM; at Human HDAC7 aa 518-end it was 10 to 100 µM; at Full length Human HDAC6, 0.001 to 0.1 µM; against Full length Human HDAC8, 1 to 10 µM.
In the case of `O=C(NO)c1ccc(CN2CCC3(CC2)C2CC4CC(C2)CC3C4)c(F)c1` [compound 167, 3-fluoro-N-hydroxy-4-(((1r,3r,5r,7r)-spiro[adamantane-2,4′-piperidin]-1′-yl)methyl)benzamide], the IC50 at Full length Human HDAC6 fell in the range of 0.001 to 0.1 µM; on Full length Human HDAC8 it was 1 to 10 µM. Moreover, the “Selectivity (6 v 8) (fold)” value at Full length Human HDAC6 (Table 1, number) is 41.9 fold; on Full length Human HDAC6 (Table 1, range class), “III (III: >10-100)”.
Consider `O=C1CC2CCCC(C1)N2Cc1ccc(C(=O)NO)cc1F` [compound 62], for which the IC50 against Full length Human HDAC6 fell in the range of 0.001 to 0.1 µM; on Full length Human HDAC8 it was 0.1 to 1 µM. Moreover, the “Selectivity (6 v 8) (fold)” value on Full length Human HDAC6 (Table 1, number) is 30.6 fold; at Full length Human HDAC6 (Table 1, range class), “III (III: >10-100)”.
The like results for `CN1Cc2ccc(C(=O)NO)cc2CN1Cc1ccccc1` [compound 117, 3-benzyl-N-hydroxy-2-methyl-1,2,3,4-tetrahydrophthalazine-6-carboxamide] were, in that order, 0.001 to 0.1 µM, 0.1 to 1 µM, 7.9 fold and “II (II: >1-10)”.

Usually IC50 stands for the point on the concentration scale where inhibition reaches its midpoint.

Source of the values: patent US12528767B2, “HDAC6 inhibitors and uses thereof” (Eikonizo Therapeutics, Inc., priority 2019, dated 2026).
